According to ChEMBL document CHEMBL1125095, “Conformational analysis and structure-activity relationships of selective dopamine D-1 receptor agonists and antagonists of the benzazepine series” (J Med Chem, 1990):

What was measured:
Adenylate cyclase type 5 [1] = biological target: T1, Adenylate cyclase type 5 (Homo sapiens, UniProt O95622); assay: Effective dose required to stimulate Adenylate cyclase
Target sequence in this assay (O95622 whole entry, looked up): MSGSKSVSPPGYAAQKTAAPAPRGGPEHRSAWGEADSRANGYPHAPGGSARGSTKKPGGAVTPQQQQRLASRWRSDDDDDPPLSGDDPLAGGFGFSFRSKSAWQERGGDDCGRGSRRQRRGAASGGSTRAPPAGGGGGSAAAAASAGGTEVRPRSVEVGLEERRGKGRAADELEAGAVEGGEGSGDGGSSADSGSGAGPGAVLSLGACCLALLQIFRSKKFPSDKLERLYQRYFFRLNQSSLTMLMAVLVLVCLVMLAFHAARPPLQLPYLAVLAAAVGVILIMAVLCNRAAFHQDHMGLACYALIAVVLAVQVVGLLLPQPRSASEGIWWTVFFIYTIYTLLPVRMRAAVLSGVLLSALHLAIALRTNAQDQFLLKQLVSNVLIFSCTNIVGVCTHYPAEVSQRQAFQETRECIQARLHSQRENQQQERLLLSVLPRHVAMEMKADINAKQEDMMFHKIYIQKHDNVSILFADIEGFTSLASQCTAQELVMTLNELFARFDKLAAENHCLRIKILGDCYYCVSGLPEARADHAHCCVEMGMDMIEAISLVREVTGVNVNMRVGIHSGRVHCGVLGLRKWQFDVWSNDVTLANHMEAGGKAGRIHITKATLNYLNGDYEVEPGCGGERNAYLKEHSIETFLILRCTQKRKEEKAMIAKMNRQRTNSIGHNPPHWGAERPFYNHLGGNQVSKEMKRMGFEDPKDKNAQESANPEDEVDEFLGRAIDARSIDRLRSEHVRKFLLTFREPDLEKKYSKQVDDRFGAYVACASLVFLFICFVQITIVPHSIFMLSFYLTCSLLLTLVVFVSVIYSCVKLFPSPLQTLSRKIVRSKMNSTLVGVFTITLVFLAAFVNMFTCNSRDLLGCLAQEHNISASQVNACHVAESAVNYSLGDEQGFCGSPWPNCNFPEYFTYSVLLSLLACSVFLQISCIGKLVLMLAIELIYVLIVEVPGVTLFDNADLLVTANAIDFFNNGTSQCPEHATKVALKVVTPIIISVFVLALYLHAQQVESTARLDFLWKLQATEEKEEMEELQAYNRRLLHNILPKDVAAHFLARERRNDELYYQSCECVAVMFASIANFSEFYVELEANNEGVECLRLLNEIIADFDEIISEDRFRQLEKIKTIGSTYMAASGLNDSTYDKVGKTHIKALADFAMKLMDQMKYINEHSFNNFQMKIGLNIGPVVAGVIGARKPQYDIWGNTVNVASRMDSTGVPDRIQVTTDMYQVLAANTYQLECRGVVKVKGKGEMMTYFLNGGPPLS

D(1A) dopamine receptor [2] = biological target: T2, D(1A) dopamine receptor (Homo sapiens, UniProt P21728); assay: Binding affinity to displace [3H]- SCH 23390 against Dopamine receptor D1
Adenylate cyclase type 5 [3] = biological target: T1, Adenylate cyclase type 5; assay: Effective concentration required to stimulate Adenylate cyclase; Inactive
Target sequence in this assay (O95622 whole entry): as the sequence (O95622 whole entry, looked up) above

D(1A) dopamine receptor [4] = biological target: T2, D(1A) dopamine receptor; assay: Binding affinity to displace [3H]-SCH- 23390 against Dopamine receptor D1
D(1A) dopamine receptor [5] = biological target: D(1A) dopamine receptor (Rattus norvegicus, UniProt P18901); assay: Binding affinity against Dopamine receptor D1 in rat radioligand
Adenylate cyclase type 5 [6] = biological target: T1, Adenylate cyclase type 5; assay: Effective concentration required to stimulate Adenylate cyclase
Target sequence in this assay (O95622 whole entry, looked up): as above

T2 sequence (P21728 whole entry): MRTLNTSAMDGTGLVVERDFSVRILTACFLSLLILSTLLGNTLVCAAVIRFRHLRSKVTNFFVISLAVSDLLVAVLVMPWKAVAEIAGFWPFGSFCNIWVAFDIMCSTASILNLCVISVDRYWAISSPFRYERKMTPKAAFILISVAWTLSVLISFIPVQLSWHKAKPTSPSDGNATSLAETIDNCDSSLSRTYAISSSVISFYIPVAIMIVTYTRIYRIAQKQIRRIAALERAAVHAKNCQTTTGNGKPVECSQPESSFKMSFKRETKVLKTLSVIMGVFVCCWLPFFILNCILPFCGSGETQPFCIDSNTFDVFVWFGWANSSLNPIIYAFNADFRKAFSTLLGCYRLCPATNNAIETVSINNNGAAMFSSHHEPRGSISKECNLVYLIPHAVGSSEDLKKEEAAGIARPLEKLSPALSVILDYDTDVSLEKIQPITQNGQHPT
D(1A) dopamine receptor (Rattus norvegicus, UniProt P18901), sequence (P18901 whole entry): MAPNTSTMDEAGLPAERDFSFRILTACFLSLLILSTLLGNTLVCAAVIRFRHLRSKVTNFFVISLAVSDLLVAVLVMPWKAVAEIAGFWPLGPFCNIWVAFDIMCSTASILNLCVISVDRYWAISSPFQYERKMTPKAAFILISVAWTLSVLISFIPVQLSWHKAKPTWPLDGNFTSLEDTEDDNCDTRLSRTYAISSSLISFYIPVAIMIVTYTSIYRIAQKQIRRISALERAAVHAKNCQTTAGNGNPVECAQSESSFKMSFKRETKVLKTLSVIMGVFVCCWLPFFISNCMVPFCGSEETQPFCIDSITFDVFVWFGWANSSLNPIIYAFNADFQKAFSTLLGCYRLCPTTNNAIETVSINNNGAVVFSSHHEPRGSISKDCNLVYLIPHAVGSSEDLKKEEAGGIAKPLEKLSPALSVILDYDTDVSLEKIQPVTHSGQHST

Oc1cc2c(cc1O)[C@@H](c1ccccc1)CNCC2 was tested. Which ED50 (Adenylate cyclase type 5 [1]) did it give?
The ED50 was 63 nM.

Cc1ccccc1[C@H]1CN(C)CCc2cc(Cl)c(O)cc21 was tested. Which Ki (D(1A) dopamine receptor [2]) did it give?
Its Ki is 0.8 nM.

For Cc1ccccc1[C@H]1CNCCc2cc(O)c(O)cc21, which EC50 (Adenylate cyclase type 5 [3]) is on record?
The EC50 was “Not Active”.

For CN1CCc2cc(Cl)c(O)cc2[C@@H](c2cccc3ccoc23)C1, which Ki (D(1A) dopamine receptor [4]) is on record?
Its Ki is 6 nM.

Cc1ccc([C@H]2CN(C)CCc3cc(Cl)c(O)cc32)cc1 was tested. Which Ki (D(1A) dopamine receptor [2]) did it give?
The Ki was 1.6 nM.

For Oc1cc2c3c(c1O)CC[C@@H]3CNC[C@@H]2c1ccccc1, which Ki (D(1A) dopamine receptor [5]) is on record?
Its Ki is 24 nM.

And the ED50 (Adenylate cyclase type 5 [1])?
The ED50 was 430 nM.

For CN1CCc2cc(Cl)c(O)cc2[C@H]2c3ccccc3C[C@@H]21, which Ki (D(1A) dopamine receptor [2]) is on record?
Its Ki is 7 nM.

How did the Response (Adenylate cyclase type 5 [6]) turn out when Cc1cccc([C@H]2CNCCc3cc(O)c(O)cc32)c1 was run?
Its Response is 71%.

Which Ki (D(1A) dopamine receptor [2]) does the source give for Cc1cccc([C@H]2CN(C)CCc3cc(Cl)c(O)cc32)c1 here?
Its Ki is 0.4 nM.

Which results are given for Oc1cc2c3c(c1O)CC[C@H]3CNC[C@@H]2c1ccccc1?
Ki (D(1A) dopamine receptor [5]): 1220 nM; Control (Adenylate cyclase type 5 [1]): 20%

Cc1c(O)c(O)cc2c1[C@@H](c1ccccc1)CNCC2 was tested. Which EC50 (Adenylate cyclase type 5 [3]) did it give?
Its EC50 is “Not Active”.
